Assay results as given in ChEMBL document CHEMBL2440076, “New triarylpyrazoles as broad-spectrum anticancer agents: design, synthesis, and biological evaluation” (Eur J Med Chem, 2013).

How the values were obtained:
Format in all cases: functional
SK-OV-3 = test: Growth inhibition of human SKOV3 cells assessed as cell growth at 3X10'-7 M after 48 hrs by sulforhodamine B assay; details: SK-OV-3, 48 h, read-out: Activity
Malme-3M = test: Growth inhibition of human MALME-3M cells assessed as cell growth at 3X10'-7 M after 48 hrs by sulforhodamine B assay; details: read-out: Activity
[1] = Growth inhibition of human HCC2998 cells assessed as cell growth at 3X10'-7 M after 48 hrs by sulforhodamine B assay; details: HCC 2998, 48 h, read-out: Activity
COLO 205 [2] = test: Growth inhibition of human COLO205 cells assessed as cell growth at 3X10'-7 M after 48 hrs by sulforhodamine B assay; details: COLO 205, 48 h, read-out: Activity
ACHN = test: Growth inhibition of human ACHN cells assessed as cell growth at 3X10'-8 M after 48 hrs by sulforhodamine B assay; details: read-out: Activity
[3] = Growth inhibition of human Hs 578T cells assessed as cell growth at 3X10'-5 M after 48 hrs by sulforhodamine B assay; details: read-out: Activity
MDA-MB-231 = test: Growth inhibition of human MDA-MB-231 cells assessed as cell growth at 3X10'-5 M after 48 hrs by sulforhodamine B assay; details: MDA-MB-231, 48 h, read-out: Activity
MCF7 [4] = test: Growth inhibition of human MCF7 cells assessed as cell growth at 3X10'-5 M after 48 hrs by sulforhodamine B assay; details: MCF7, 48 h, read-out: Activity
LOX IMVI [5] = test: Growth inhibition of human LOXIMVI cells assessed as cell growth at 3X10'-8 M after 48 hrs by sulforhodamine B assay; details: read-out: Activity
SF-539 = test: Growth inhibition of human SF539 cells assessed as cell growth at 3X10'-8 M after 48 hrs by sulforhodamine B assay; details: SF-539, 48 h, read-out: Activity
SF-295 = test: Growth inhibition of human SF295 cells assessed as cell growth at 3X10'-8 M after 48 hrs by sulforhodamine B assay; details: SF-295, 48 h, read-out: Activity
NCI-H460 [6] = test: Growth inhibition of human NCI-H460 cells assessed as cell growth at 3X10'-8 M after 48 hrs by sulforhodamine B assay; details: NCI-H460, 48 h, read-out: Activity
NCI-H322M = test: Growth inhibition of human NCI-H322M cells assessed as cell growth at 3X10'-8 M after 48 hrs by sulforhodamine B assay; details: read-out: Activity
K562 = test: Growth inhibition of human K562 cells assessed as cell growth at 3X10'-8 M after 48 hrs by sulforhodamine B assay; details: K562, 48 h, read-out: Activity
BT-549 = test: Growth inhibition of human BT549 cells assessed as cell growth at 3X10'-9 M after 48 hrs by sulforhodamine B assay; details: BT-549, 48 h, read-out: Activity
TK-10 = test: Growth inhibition of human TK10 cells assessed as cell growth at 3X10'-5 M after 48 hrs by sulforhodamine B assay; details: TK-10, 48 h, read-out: Activity
OVCAR-8 [7] = test: Growth inhibition of human OVCAR8 cells assessed as cell growth at 3X10'-5 M after 48 hrs by sulforhodamine B assay; details: OVCAR-8, 48 h, read-out: Activity
OVCAR-5 = test: Growth inhibition of human OVCAR5 cells assessed as cell growth at 3X10'-5 M after 48 hrs by sulforhodamine B assay; details: OVCAR-5, 48 h, read-out: Activity
MCF7 [8] = test: Growth inhibition of human MCF7 cells assessed as cell growth at 3X10'-9 M after 48 hrs by sulforhodamine B assay; details: MCF7, 48 h, read-out: Activity
OVCAR-8 [9] = test: Growth inhibition of human OVCAR8 cells assessed as cell growth at 3X10'-9 M after 48 hrs by sulforhodamine B assay; details: OVCAR-8, 48 h, read-out: Activity
U-251 = test: Growth inhibition of human U251 cells assessed as cell growth at 3X10'-5 M after 48 hrs by sulforhodamine B assay; details: U-251, 48 h, read-out: Activity
SNB-75 [10] = test: Growth inhibition of human SNB75 cells assessed as cell growth at 3X10'-5 M after 48 hrs by sulforhodamine B assay; details: SNB-75, 48 h, read-out: Activity
SF-268 [11] = test: Growth inhibition of human SF268 cells assessed as cell growth at 3X10'-5 M after 48 hrs by sulforhodamine B assay; details: SF-268, 48 h, read-out: Activity
SK-MEL-5 = test: Growth inhibition of human SK-MEL-5 cells assessed as cell growth at 3X10'-9 M after 48 hrs by sulforhodamine B assay; details: SK-MEL-5, 48 h, read-out: Activity
SNB-75 [12] = test: Growth inhibition of human SNB75 cells assessed as cell growth at 3X10'-9 M after 48 hrs by sulforhodamine B assay; details: SNB-75, 48 h, read-out: Activity
SF-268 [13] = test: Growth inhibition of human SF268 cells assessed as cell growth at 3X10'-9 M after 48 hrs by sulforhodamine B assay; details: SF-268, 48 h, read-out: Activity
KM12 = test: Growth inhibition of human KM12 cells assessed as cell growth at 3X10'-9 M after 48 hrs by sulforhodamine B assay; details: KM12, 48 h, read-out: Activity
A549 = test: Growth inhibition of human A549/ATCC cells assessed as cell growth at 3X10'-9 M after 48 hrs by sulforhodamine B assay; details: A549, 48 h, read-out: Activity
CAKI-1 [14] = test: Growth inhibition of human CAKI-1 cells assessed as cell growth at 3X10'-6 M after 48 hrs by sulforhodamine B assay; details: CAKI-1, 48 h, read-out: Activity
OVCAR-3 = test: Growth inhibition of human OVCAR3 cells assessed as cell growth at 3X10'-6 M after 48 hrs by sulforhodamine B assay; details: OVCAR-3, 48 h, read-out: Activity
LOX IMVI [15] = test: Growth inhibition of human LOXIMVI cells assessed as cell growth at 3X10'-6 M after 48 hrs by sulforhodamine B assay; details: read-out: Activity
COLO 205 [16] = test: Growth inhibition of human COLO205 cells assessed as cell growth at 3X10'-6 M after 48 hrs by sulforhodamine B assay; details: COLO 205, 48 h, read-out: Activity
NCI-H460 [17] = test: Growth inhibition of human NCI-H460 cells assessed as cell growth at 3X10'-6 M after 48 hrs by sulforhodamine B assay; details: NCI-H460, 48 h, read-out: Activity
MCF7 [18] = test: Growth inhibition of human MCF7 cells assessed as cell growth at 3X10'-7 M after 48 hrs by sulforhodamine B assay; details: MCF7, 48 h, read-out: Activity
PC-3 = test: Growth inhibition of human PC3 cells assessed as cell growth at 3X10'-7 M after 48 hrs by sulforhodamine B assay; details: PC-3, 48 h, read-out: Activity
UO-31 = test: Growth inhibition of human UO31 cells assessed as cell growth at 3X10'-7 M after 48 hrs by sulforhodamine B assay; details: UO-31, 48 h, read-out: Activity
CAKI-1 [19] = test: Growth inhibition of human CAKI-1 cells assessed as cell growth at 3X10'-7 M after 48 hrs by sulforhodamine B assay; details: CAKI-1, 48 h, read-out: Activity

SMILES: COc1cc(-c2nn(-c3cccc(NC(=O)Nc4ccc(Cl)c(C(F)(F)F)c4)c3)cc2-c2ccncc2)ccc1Cl
- growth at 0.3 µM (SK-OV-3): 103%
- growth at 0.3 µM (Malme-3M): 96%
- growth at 0.3 µM [1]: 101%
- growth at 0.3 µM (COLO 205 [2]): 101%
- growth at 0.03 µM (ACHN): 98%
- growth at 30 µM [3]: -8%
- growth at 30 µM (MDA-MB-231): -76%
- growth at 30 µM (MCF7 [4]): 2%
- growth at 0.03 µM (LOX IMVI [5]): 100%
- growth at 0.03 µM (SF-539): 93%
- growth at 0.03 µM (SF-295): 90%
- growth at 0.03 µM (NCI-H460 [6]): 102%
- growth at 0.03 µM (NCI-H322M): 93%
- growth at 0.03 µM (K562): 105%
- growth at 0.003 µM (BT-549): 103%
- growth at 30 µM (TK-10): -15%
- growth at 30 µM (OVCAR-8 [7]): -13%
- growth at 30 µM (OVCAR-5): -43%
- growth at 0.003 µM (MCF7 [8]): 94%
- growth at 0.003 µM (OVCAR-8 [9]): 105%
- growth at 30 µM (U-251): -58%
- growth at 30 µM (SNB-75 [10]): -24%
- growth at 30 µM (SF-268 [11]): -31%
- growth at 0.003 µM (SK-MEL-5): 98%
- growth at 0.003 µM (SNB-75 [12]): 90%
- growth at 0.003 µM (SF-268 [13]): 97%
- growth at 0.003 µM (KM12): 103%
- growth at 0.003 µM (A549): 95%
- growth at 3 µM (CAKI-1 [14]): 4%
- growth at 3 µM (OVCAR-3): -14%
- growth at 3 µM (LOX IMVI [15]): 13%
- growth at 3 µM (COLO 205 [16]): -49%
- growth at 3 µM (NCI-H460 [17]): 6%
- growth at 0.3 µM (MCF7 [18]): 87%
- growth at 0.3 µM (PC-3): 80%
- growth at 0.3 µM (UO-31): 85%
- growth at 0.3 µM (CAKI-1 [19]): 93%

SMILES: O=C(Nc1cccc(-n2cc(-c3ccncc3)c(-c3ccc(Cl)c(O)c3)n2)c1)Nc1ccc(Cl)c(Cl)c1
- growth at 0.3 µM (SK-OV-3): 98%
- growth at 0.3 µM (Malme-3M): 102%
- growth at 0.3 µM [1]: 115%
- growth at 0.3 µM (COLO 205 [2]): 104%
- growth at 0.03 µM (ACHN): 103%
- growth at 30 µM [3]: -21%
- growth at 30 µM (MDA-MB-231): -22%
- growth at 30 µM (MCF7 [4]): 2%
- growth at 0.03 µM (LOX IMVI [5]): 91%
- growth at 0.03 µM (SF-539): 95%
- growth at 0.03 µM (NCI-H460 [6]): 105%
- growth at 0.03 µM (NCI-H322M): 100%
- growth at 0.03 µM (K562): 102%
- growth at 0.003 µM (BT-549): 99%
- growth at 30 µM (OVCAR-8 [7]): 7%
- growth at 30 µM (OVCAR-5): 1%
- growth at 0.003 µM (MCF7 [8]): 97%
- growth at 0.003 µM (OVCAR-8 [9]): 103%
- growth at 30 µM (U-251): -28%
- growth at 30 µM (SNB-75 [10]): -15%
- growth at 30 µM (SF-268 [11]): -21%
- growth at 0.003 µM (SK-MEL-5): 96%
- growth at 0.003 µM (SNB-75 [12]): 88%
- growth at 0.003 µM (SF-268 [13]): 93%
- growth at 0.003 µM (KM12): 97%
- growth at 0.003 µM (A549): 96%
- growth at 3 µM (CAKI-1 [14]): 17%
- growth at 3 µM (OVCAR-3): -1%
- growth at 3 µM (LOX IMVI [15]): 3%
- growth at 3 µM (COLO 205 [16]): 61%
- growth at 3 µM (NCI-H460 [17]): 2%
- growth at 0.3 µM (MCF7 [18]): 94%
- growth at 0.3 µM (PC-3): 81%
- growth at 0.3 µM (UO-31): 93%
- growth at 0.3 µM (CAKI-1 [19]): 88%
